In patent publication US12455279B2, “Personalized immunotherapy for rejuvenating activating and strengthening exhausted and dysfunctional T cells, reducing PD-1, and improving immune function” (priority 2018, dated 2025):
Where “and” joins values, the source holds several entries; their conditions need not be identical. Equal values may be shown once. Where no end group is shown, it is not given here.

Assays:
[1] = system: CD3+ T cells of liver cancer patients; assay: Proliferation / big proliferating T cells / CD25 of CD3+ T cells of liver cancer patients; assay type: cell-based, human; parameters: % big/activated/proliferating T cells: concentration or dose not given beside the values; settings: for % big/activated/proliferating T cells / Fold increase (big/activated/proliferating T cells): T cells of liver cancer patient one; for % big/activated/proliferating T cells: 60 hours culture; for Fold increase (big/activated/proliferating T cells): vs untreated; for number of T cells present in culture (FIG. 1): 60 hours after administration
Method: Blood was drawn from two patients suffering from liver cancer, patient one and patient two who both suffer from hepatocellular carcinoma. 15 mLs of blood yielded roughly 2.5×10^7 peripheral blood leucocytes, from which approximately […] positive T cells were isolated. The cells were cultured as described above, and the effects of various molecules and their combinations on those T cells were examined.
Cell proliferation was monitored in culture for 60 hours after administration of the molecule/s (FIG. 1).

[2] = system: PD-1 expressing large proliferating CD3+ normal human T cells; assay: PD-1 expression on large proliferating T cells (FSC/SSC gating), 1 Hr treatment; assay type: cell-based; settings: for % reduction in % of large T cells expressing PD-1: vs untreated
Method: (§1) Peripheral blood lymphocytes (PBLs) were separated from normal human leukocytes of healthy donors by Ficol separation and CD3 positive T cells were separated by anti-CD3 antibody-coupled magnetic beads. The CD3+ T cells were cultured in RPMI 1640 medium supplemented with 10% heat inactivated fetal calf serum (FCS), 1% L-Glutamine, 1% sodium pyruvate, 1% non-essential amino acids, and 1% antibiotics. The cells were usually maintained for, for on average 24 hours after their separation before various molecules were added and their effects on the T cells were measured. […] It was therefore tested if neurotransmitters, neuropeptides, and/or modulators of voltage-gated ion channels can reduce PD-1 on the cell surface of T cells. Such a reduction would allow the T cells to escape the tumor-induced T cell suppression, and the activated T cells could then attach the cancer cells. As such, the expression of PD-1 on the surface of these treated and untreated T cells was monitored. […] Shorter in vitro incubation times are frequently preferable when cells are going to subsequently be returned to a subject, as they end to decrease the risk of an adverse reaction.
(§2) CD3 positive T cells of patients are a heterogenous mix of different types of T cells. […] Using this FCS and SSC analysis, T cells can be distinguished and separated by size into large proliferating T cells and smaller non-proliferating T cells.

[3] = system: PD-1 expressing smaller non-proliferating CD3+ normal human T cells; assay: PD-1 expression on smaller non-proliferating T cells (FSC/SSC gating), 1 Hr treatment; assay type: cell-based; settings: for % reduction in % of smaller T cells expressing PD-1: vs untreated
Method: as §1, §2

[4] = system: PD-1 expressing CD3+ normal human T cells; assay: PD-1 surface expression on CD3+ T cells of healthy donors after treatment (1, 18, 24 Hr); assay type: cell-based; settings: for % reduction in % of T cells expressing PD-1: vs untreated; for effect on PD-1 expressing T cells: incubated for 24 hours
Method: as §1

| Molecule | % of large T cells expressing PD-1 ([2]; 10^−8M) | % reduction in % of large T cells expressing PD-1 ([2]; 10^−8M) | % of smaller T cells expressing PD-1 ([3]; 10−8M) | % reduction in % of smaller T cells expressing PD-1 ([3]; 10−8M) | % of T cells expressing PD-1 ([4]; 1 Hr treatment, 10^−8M) | % reduction in % of T cells expressing PD-1 ([4]; 1 Hr treatment, 10^−8M) | % of T cells expressing PD-1 ([4]; 18 Hr treatment, 10^−7M) | % reduction in % of T cells expressing PD-1 ([4]; 18 Hr treatment, 10^−7M) | % of T cells expressing PD-1 ([4]; 24 Hr treatment, 10^−7M) | % reduction in % of T cells expressing PD-1 ([4]; 24 Hr treatment, 10^−7M) | % of T cells expressing PD-1 ([4]; 24 Hr treatment, 10^−8M) | % reduction in % of T cells expressing PD-1 ([4]; 24 Hr treatment, 10^−8M) | also measured |
| --- | --- | --- | --- | --- | --- | --- | --- | --- | --- | --- | --- | --- | --- |
| Neuropeptide Y: neuropeptide | – | – | – | – | – | – | – | – | – | – | – | – | % big/activated/proliferating T cells [1]: 16.40%; Fold increase (big/activated/proliferating T cells) [1]: 3.6-fold; number of T cells present in culture (FIG. 1) ([1]; patient one): increased the number of T cells present in culture |
| CGRP | 16.5% | 23.3% | 35.9% | 18.2% | – | – | – | – | – | – | – | – | % big/activated/proliferating T cells [1]: 19.20%; Fold increase (big/activated/proliferating T cells) [1]: 4.3-fold; number of T cells present in culture (FIG. 1) ([1]; patient one): increased the number of T cells present in culture |
| O=C(NCCCCN1CCN(c2cccc(Cl)c2Cl)CC1)c1ccc2c(c1)Cc1ccccc1-2 [NGB 2904] | – | – | – | – | – | – | – | – | – | – | – | – | % of large T cells expressing PD-1 ([2]; concentration not given): 22.5%; % reduction in % of large T cells expressing PD-1 ([2]; concentration not given): −4.7%; % of smaller T cells expressing PD-1 ([3]; concentration not given): 40.2%; % reduction in % of smaller T cells expressing PD-1 ([3]; concentration not given): 8.4% |
| CN[C@H](CC(=O)O)C(=O)O [NMDA, N-methyl-D-aspartic acid] | – | – | – | – | 30.35% | 17% | 24.75% | 28.67% | – | – | – | – | – |
| CN[C@@H]1Cc2cccc3[nH]c(=O)n(c23)C1 [Sumanirole] | 13.6% | 36.7% | 36.2% | 17.5% | 25.65% | 30% | 26.15% | 24.64% | 16.4% | 19.71% | 16% | 21.66% | – |
| GnRH-I: neuropeptide (QHWSYGLRPG; ends and bridges not checked; UniProt P01148 24-33, looked up) | 16.1% | 25.1% | 36.6% | 16.6% | 34.27% | 6% | – | – | – | – | – | – | – |
| CCCN1CCO[C@@H]2c3cc(O)ccc3OC[C@H]21 [PD 128907] | 16.1% | 25.1% | 38.4% | 12.5% | 26.15% | 29% | 27.25% | 21.47% | 13.6% | 33.41% | 16.3% and 10.7% | 47.61% | – |
| Cc1onc(O)c1CC(N)C(=O)O (stereo not shown) [AMPA, alph-amino-3-hydroxy-5-methyl-4-isoxazalepropinoic acid] | – | – | – | – | 26.4% | 28% | 28.55% | 17.72% | – | – | – | – | – |
| N#Cc1cc2[nH]c(=O)c(=O)[nH]c2cc1[N+](=O)[O-] [CNQX] | – | – | – | – | – | – | – | – | – | – | – | – | % of T cells expressing PD-1 ([4]; 24 Hr treatment, 0.5*10^-6M): 13.7%; % reduction in % of T cells expressing PD-1 ([4]; 24 Hr treatment, 0.5*10^-6M): 32.93%; % of T cells expressing PD-1 ([4]; 24 Hr treatment, 0.5*10^−5M): 12.9%; % reduction in % of T cells expressing PD-1 ([4]; 24 Hr treatment, 0.5*10^−5M): 36.84% |
| Oc1ccc(C2CNCCc3c2cc(O)c(O)c3Cl)cc1 (stereo not shown) [Fenoldopam - Corlopam, Fenoldopam] | – | – | – | – | – | – | 27.87% | 19.74% | – | – | – | – | – |
| Dendrotoxin K | – | – | – | – | 34.6% | 25% | 23.30% | 32.85% | 16.2% | 20.69% | 16.2% | 20.69% | – |
| CCCN(CCC)C1CCc2ccc(O)cc2C1 (stereo not shown) [7-OH-DPAT] | – | – | – | – | 21.65% | 42% | – | – | 5.12% | 75.85% | 13.6% | 35.85% | – |
| OC1(c2ccc(Cl)cc2)CCN(Cc2c[nH]c3ccccc23)CC1 [L-741,626] | – | – | – | – | – | – | – | – | – | – | – | – | % of large T cells expressing PD-1 ([2]; concentration not given): 19.0%; % reduction in % of large T cells expressing PD-1 ([2]; concentration not given): 11.6%; % of smaller T cells expressing PD-1 ([3]; concentration not given): 38.6%; % reduction in % of smaller T cells expressing PD-1 ([3]; concentration not given): 12.1% |
| Oc1ccc(C2CNCCc3c2cc(O)c(O)c3Cl)cc1 (stereo not shown) [Fenoldopam (powder), Fenoldopam] | – | – | – | – | – | – | 25.75% | 25.79% | 21.3% | −4.26% | 14.7% | 28.05% | effect on PD-1 expressing T cells [4]: did not have a positive effect |
| Cc1cccc(NC(=O)CN2CCC(c3ccccn3)CC2)c1 [A412997] | – | – | – | – | 17.4% | 52% | – | – | – | – | – | – | – |
| Oc1cc2c(cc1O)C(c1ccccc1)CNCC2 (stereo not shown) [SKF38393] | 15.6% | 27.4% | 36.7% | 16.4% | 26.2% | 28% | 26.40% | 23.90% | 21.8% | -6.73% | 20.3% | 0.61% | effect on PD-1 expressing T cells [4]: did not have a positive effect |
| CN1CCc2cc(Cl)c(O)cc2[C@H]2c3ccccc3CC[C@@H]21 [SCH 39166] | – | – | – | – | – | – | – | – | – | – | – | – | % of large T cells expressing PD-1 ([2]; concentration not given): 19.8%; % reduction in % of large T cells expressing PD-1 ([2]; concentration not given): 7.9%; % of smaller T cells expressing PD-1 ([3]; concentration not given): 40.1%; % reduction in % of smaller T cells expressing PD-1 ([3]; concentration not given): 8.7% |
| Cc1cccc(C(=O)NCN2CCN(c3ccccc3C#N)CC2)c1 [PD168077] | 15.6% | 27.4% | 40.3% | 8.2% | 15.1% | 59% | 24% | 30.84% | 5.3% | 74.05% | – | – | reduction of PD-1 surface expression level and of number of PD-1 expressing T cells ([4]; 1, 18 or 24 hours treatment): greatest reduction in mean percentage of PD-1 expressing T cells after 24 hours of treatment |
| NC[C@@H]1O[C@H](C23CC4CC(CC(C4)C2)C3)Cc2c1ccc(O)c2O [A77636] | 20.5% | 4.7% | 40.8% | 7.1% | 27.25% | 25% | 27.10% | 21.90% | 12.7% | 37.84% | 14.7% | 28.05% | – |
| Cc1c(C2CCN(CCc3ccccc3)CC2)noc1-c1ccc(Cl)cc1 [L-741,742] | – | – | – | – | – | – | – | – | – | – | – | – | % of large T cells expressing PD-1 ([2]; concentration not given): 19.3%; % reduction in % of large T cells expressing PD-1 ([2]; concentration not given): 10.2%; % of smaller T cells expressing PD-1 ([3]; concentration not given): 37.8%; % reduction in % of smaller T cells expressing PD-1 ([3]; concentration not given): 13.9% |
| GnRH-II: neuropeptide (peptide, UniProt O43555 24-120, looked up, Progonadoliberin-2, neuropeptide) Progonadoliberin-2: QHWSHGWYPGGKRALSSAQDPQNALRPPGRALDTAAGSPVQTAHGLPSDALAPLDDSMPWEGRTTAQWSLHRKRHLARTLLTAAREPRPAPPSSNKV | 9.5% | 55.8% | – | – | 31.6% | 14% | – | – | – | – | – | – | surface expression of CD25 (FIG. 2D) ([1]; T cells of patient one): increased the surface expression of CD25; number of T cells present in culture (FIG. 1) ([1]; patient one): increased the number of T cells present in culture; increase in the number of big, proliferating CD3 positive cells (ranking in words) ([1]; patient one, flow cytometer): most effective |
